For series [1], the target named is T1, Integrin alpha-4/beta-1 (Homo sapiens, UniProt P05556+P13612). The experiment in a line: Inhibition of VLA-4 receptor of Jurkat cells in BURJ assay. It counts as cell-based.
In series [2] the target is T1, Integrin alpha-4/beta-1. Kind of series: Percentage binding to VLA-4 receptor of Jurkat cells. Format: cell-based.
The nature of series [3]: Plasma clearance in rat upon intravenous administration of 5 mg/kg. It counts as ADME, organism-based. Set-up: dose 5 mg/kg, route intravenous.
Series [4] in a line: Maximum concentration in rat plasma upon peroral administration of 5 mg/kg. Format: ADME, organism-based. On the set-up: dose 5 mg/kg, route oral. The note with it: po.
Series [5] is described as follows: Oral bioavailability in rat upon oral administration of 5 mg/kg. The note with it: in vivo.
A short description of series [6]: Half-life in rat upon intravenous administration of 5 mg/kg. The note with it: in vivo. Format: ADME, organism-based. Set-up: dose 5 mg/kg, route intravenous.
The nature of series [7]: Area under plasma concentration curve in rat upon intravenous administration of 5 mg/kg. Set-up: dose 5 mg/kg, route intravenous. Format: ADME, organism-based.
Series [8] can be described thus: Volume of distribution of compound in rat plasma upon intravenous administration of 5 mg/kg. It counts as ADME, organism-based. On the set-up: dose 5 mg/kg, route intravenous.

Data on 10 compounds can be found in ChEMBL document CHEMBL1142815, “Influence of acid surrogates toward potency of VLA-4 antagonist” (Bioorg Med Chem Lett, 2005).

T1 sequence (P05556 whole entry): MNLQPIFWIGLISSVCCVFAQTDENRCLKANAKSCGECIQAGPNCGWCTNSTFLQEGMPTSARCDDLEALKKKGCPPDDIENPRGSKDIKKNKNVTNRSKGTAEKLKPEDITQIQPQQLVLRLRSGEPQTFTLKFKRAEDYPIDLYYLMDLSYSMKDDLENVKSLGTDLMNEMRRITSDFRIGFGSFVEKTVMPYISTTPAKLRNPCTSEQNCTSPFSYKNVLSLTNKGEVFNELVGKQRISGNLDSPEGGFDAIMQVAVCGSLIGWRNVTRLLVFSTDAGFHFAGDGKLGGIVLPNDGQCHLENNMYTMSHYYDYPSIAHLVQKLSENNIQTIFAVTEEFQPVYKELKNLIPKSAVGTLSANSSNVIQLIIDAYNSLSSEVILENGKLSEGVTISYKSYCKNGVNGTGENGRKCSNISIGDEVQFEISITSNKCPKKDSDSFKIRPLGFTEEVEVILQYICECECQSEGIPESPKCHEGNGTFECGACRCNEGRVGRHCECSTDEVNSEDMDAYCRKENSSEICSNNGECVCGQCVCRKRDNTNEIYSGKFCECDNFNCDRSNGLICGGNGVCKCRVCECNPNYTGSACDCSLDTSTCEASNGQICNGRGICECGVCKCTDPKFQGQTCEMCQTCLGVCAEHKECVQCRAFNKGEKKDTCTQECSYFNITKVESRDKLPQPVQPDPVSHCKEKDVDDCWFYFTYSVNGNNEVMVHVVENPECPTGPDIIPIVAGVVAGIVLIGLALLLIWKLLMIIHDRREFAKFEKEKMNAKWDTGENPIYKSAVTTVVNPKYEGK
T1 sequence (P13612 whole entry): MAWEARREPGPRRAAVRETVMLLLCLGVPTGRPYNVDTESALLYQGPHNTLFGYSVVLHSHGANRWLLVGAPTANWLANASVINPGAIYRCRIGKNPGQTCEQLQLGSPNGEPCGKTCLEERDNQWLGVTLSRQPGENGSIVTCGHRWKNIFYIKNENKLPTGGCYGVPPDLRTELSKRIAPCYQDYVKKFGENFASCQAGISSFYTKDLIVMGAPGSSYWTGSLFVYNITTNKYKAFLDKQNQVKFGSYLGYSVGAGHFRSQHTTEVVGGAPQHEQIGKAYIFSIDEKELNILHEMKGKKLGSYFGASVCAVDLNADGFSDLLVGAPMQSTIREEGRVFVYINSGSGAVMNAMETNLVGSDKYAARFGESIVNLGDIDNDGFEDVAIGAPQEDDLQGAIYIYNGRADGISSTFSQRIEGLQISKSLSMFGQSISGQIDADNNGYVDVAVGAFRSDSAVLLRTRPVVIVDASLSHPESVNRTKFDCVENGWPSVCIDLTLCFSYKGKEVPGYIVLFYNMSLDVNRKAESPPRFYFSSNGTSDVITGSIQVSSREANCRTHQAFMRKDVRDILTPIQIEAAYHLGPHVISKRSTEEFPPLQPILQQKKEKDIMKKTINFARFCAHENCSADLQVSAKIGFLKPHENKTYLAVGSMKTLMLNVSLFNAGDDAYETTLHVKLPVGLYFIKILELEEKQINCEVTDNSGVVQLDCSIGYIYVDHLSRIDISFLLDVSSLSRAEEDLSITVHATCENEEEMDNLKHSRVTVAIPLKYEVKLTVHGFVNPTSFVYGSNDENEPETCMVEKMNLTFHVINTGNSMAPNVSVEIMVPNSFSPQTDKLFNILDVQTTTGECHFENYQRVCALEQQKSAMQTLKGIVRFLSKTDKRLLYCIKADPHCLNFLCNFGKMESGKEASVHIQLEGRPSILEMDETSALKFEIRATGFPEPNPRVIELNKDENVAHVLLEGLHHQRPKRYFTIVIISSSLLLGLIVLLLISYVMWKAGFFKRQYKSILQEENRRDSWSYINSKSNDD

On Integrin alpha-4/beta-1 [1], `CCOC(=O)CC(=O)[C@H](Cc1ccc(NC(=O)c2c(Cl)cncc2Cl)cc1)NC(=O)[C@@H]1CCCN1S(=O)(=O)c1cc(Cl)cc(Cl)c1` came in with an IC50 of 13 nM. For the same compound, the Percent binding to VLA-4 on Integrin alpha-4/beta-1 [2] came out at 10%.

Take `O=C(Nc1ccc(C[C@H](NC(=O)[C@@H]2CCCN2S(=O)(=O)c2cc(Cl)cc(Cl)c2)c2noc(O)n2)cc1)c1c(Cl)cncc1Cl`: on Integrin alpha-4/beta-1 [1], inhibition was half-maximal at 12 nM (IC50). For the same compound, in series [3], the clearance was 60 mL/min/kg. In addition, the maximum concentration (Cmax) in series [4] was found to be 6.1 nM. On Integrin alpha-4/beta-1 [2], this compound showed a Percent binding to VLA-4 of 0%. This compound also showed a bioavailability in series [5] of 0.19%. The compound also had a half-life in series [6] of 2.78 h. For the same compound, the AUC in series [7] stood at 2.01 µM·h. Further, the volume of distribution (Vd) in series [8] turned out to be 2.61 L/kg.

Turning to `O=C(Nc1ccc(C[C@H](NC(=O)[C@@H]2CCCN2S(=O)(=O)c2cc(Cl)cc(Cl)c2)C(=O)NS(=O)(=O)C(F)(F)F)cc1)c1c(Cl)cncc1Cl`, on Integrin alpha-4/beta-1 [1], inhibition was half-maximal at 11 nM (IC50). This compound also came in with a Percent binding to VLA-4 at Integrin alpha-4/beta-1 [2] of 0%.

At Integrin alpha-4/beta-1 [1], `COc1cccc(OC)c1-c1ccc(C[C@@H](Cn2oc(=O)[nH]c2=O)NC(=O)[C@@H]2CCCN2S(=O)(=O)c2cc(Cl)cc(Cl)c2)cc1` displayed an IC50 of 6000 nM.

`O=C(Nc1ccc(C[C@H](NC(=O)[C@@H]2CCCN2S(=O)(=O)c2cc(Cl)cc(Cl)c2)c2cc(=O)[nH]o2)cc1)c1c(Cl)cncc1Cl` displayed an IC50 on Integrin alpha-4/beta-1 [1] of 20 nM. The same compound had a clearance in series [3] of 37.6 mL/min/kg. Besides, the half-life in series [6] is 2.85 h. The same compound showed an area under the curve (AUC) in series [7] of 3.51 µM·h. Further, the distribution volume (Vd) in series [8] came to 1.25 L/kg.

The compound `O=C(Nc1ccc(C[C@H](NC(=O)[C@@H]2CCCN2S(=O)(=O)c2cc(Cl)cc(Cl)c2)c2cc(O)[nH]n2)cc1)c1c(Cl)cncc1Cl` showed an IC50 against Integrin alpha-4/beta-1 [1] of 300 nM. This compound showed a Percent binding to VLA-4 on Integrin alpha-4/beta-1 [2] of 6%.

For the compound `O=C(Nc1ccc(C[C@H](NC(=O)[C@@H]2CCCN2S(=O)(=O)c2cc(Cl)cc(Cl)c2)c2cc(O)no2)cc1)c1c(Cl)cncc1Cl`, on Integrin alpha-4/beta-1 [2], the Percent binding to VLA-4 worked out at 8%.

On to `O=C(Nc1ccc(C[C@H](NC(=O)[C@@H]2CCCN2S(=O)(=O)c2cc(Cl)cc(Cl)c2)C(=O)NC(=O)C(F)(F)F)cc1)c1c(Cl)cncc1Cl`, for which 10 nM corresponded to half-maximal inhibition at Integrin alpha-4/beta-1 [1] (IC50). This compound also displayed a Percent binding to VLA-4 at Integrin alpha-4/beta-1 [2] of 0%.

In the case of `O=C(Nc1ccc(C[C@H](NC(=O)[C@@H]2CCCN2S(=O)(=O)c2cc(Cl)cc(Cl)c2)c2nnn[nH]2)cc1)c1c(Cl)cncc1Cl`, at Integrin alpha-4/beta-1 [1], the IC50 amounted to 60 nM. Besides, the Percent binding to VLA-4 on Integrin alpha-4/beta-1 [2] was determined as 0%.

`O=C(Nc1ccc(C[C@H](NC(=O)[C@@H]2CCCN2S(=O)(=O)c2cc(Cl)cc(Cl)c2)C(=O)O)cc1)c1c(Cl)cncc1Cl` returned an IC50 against Integrin alpha-4/beta-1 [1] of 0.03 nM. The clearance in series [3] is 38.2 mL/min/kg. In addition, in series [4], the maximum concentration (Cmax) came to 3.14 nM. The same compound had a Percent binding to VLA-4 at Integrin alpha-4/beta-1 [2] of 66%. The compound further showed a half-life in series [6] of 0.72 h. For the same compound, the AUC in series [7] was 0.68 µM·h. This compound also returned a volume of distribution (Vd) in series [8] of 0.57 L/kg.
